Laboratory results as given in the supplement of paper PMC10307832.

Experiments:
Assay in all cases: relative viability (nuclei count vs DMSO), 5 days (fraction); higher = more cells survive
JZL-184 + OSI-027 = compound: C1CN(CCC1C(C2=CC3=C(C=C2)OCO3)(C4=CC5=C(C=C4)OCO5)O)C(=O)OC6=CC=C(C=C6)[N+](=O)[O-] [JZL-184] + COc1cccc2cc(-c3nc([C@H]4CC[C@H](C(=O)O)CC4)n4ncnc(N)c34)[nH]c12 [OSI-027] (partner 0.5 µM)
Method in brief: (§1)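 Values are medians from duplicate plates. Each reflects relative viability, defined as the nuclei count of treated wells over that of vehicle wells. Lung cancer cell lines in 1536-well plates were pin-tool dosed one day after seeding with one drug alone or with a fixed anchor-drug dose plus five library-drug doses (not always all listed) in √10 steps, then fixed, stained and imaged at 4× after 5 days.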

JZL-184 + Navitoclax = compound: C1CN(CCC1C(C2=CC3=C(C=C2)OCO3)(C4=CC5=C(C=C4)OCO5)O)C(=O)OC6=CC=C(C=C6)[N+](=O)[O-] [JZL-184] + CC1(C)CCC(c2ccc(Cl)cc2)=C(CN2CCN(c3ccc(C(=O)NS(=O)(=O)c4ccc(N[C@H](CCN5CCOCC5)CSc5ccccc5)c(S(=O)(=O)C(F)(F)F)c4)cc3)CC2)C1 [Navitoclax] (partner 0.5 µM)
Method in brief: as §1

JZL-184 + Bortezomib = compound: C1CN(CCC1C(C2=CC3=C(C=C2)OCO3)(C4=CC5=C(C=C4)OCO5)O)C(=O)OC6=CC=C(C=C6)[N+](=O)[O-] [JZL-184] + CC(C)C[C@H](NC(=O)[C@H](Cc1ccccc1)NC(=O)c1cnccn1)B(O)O [Bortezomib] (partner 0.002 µM)
Method in brief: as §1

JZL-184 + Pictilisib = compound: C1CN(CCC1C(C2=CC3=C(C=C2)OCO3)(C4=CC5=C(C=C4)OCO5)O)C(=O)OC6=CC=C(C=C6)[N+](=O)[O-] [JZL-184] + CS(=O)(=O)N1CCN(Cc2cc3nc(-c4cccc5[nH]ncc45)nc(N4CCOCC4)c3s2)CC1 [Pictilisib] (partner 1 µM)
Method in brief: as §1

JZL-184 + Lapatinib = compound: C1CN(CCC1C(C2=CC3=C(C=C2)OCO3)(C4=CC5=C(C=C4)OCO5)O)C(=O)OC6=CC=C(C=C6)[N+](=O)[O-] [JZL-184] + CS(=O)(=O)CCNCc1ccc(-c2ccc3ncnc(Nc4ccc(OCc5cccc(F)c5)c(Cl)c4)c3c2)o1 [Lapatinib] (partner 2 µM)
Method in brief: as §1

Cell Line	relative viability (JZL-184 + OSI-027; first compound 0.04 µM)	relative viability (JZL-184 + OSI-027; first compound 0.4 µM)	relative viability (JZL-184 + OSI-027; first compound 1.265 µM)	relative viability (JZL-184 + OSI-027; first compound 4 µM)	relative viability (JZL-184 + Navitoclax; first compound 0.04 µM)	relative viability (JZL-184 + Navitoclax; first compound 0.4 µM)	relative viability (JZL-184 + Navitoclax; first compound 1.265 µM)	relative viability (JZL-184 + Navitoclax; first compound 4 µM)	relative viability (JZL-184 + Bortezomib; first compound 0.04 µM)	relative viability (JZL-184 + Bortezomib; first compound 0.4 µM)	relative viability (JZL-184 + Bortezomib; first compound 1.265 µM)	relative viability (JZL-184 + Bortezomib; first compound 4 µM)	relative viability (JZL-184 + Pictilisib; first compound 0.04 µM)	relative viability (JZL-184 + Pictilisib; first compound 0.4 µM)	relative viability (JZL-184 + Pictilisib; first compound 1.265 µM)	relative viability (JZL-184 + Pictilisib; first compound 4 µM)	relative viability (JZL-184 + Lapatinib; first compound 0.04 µM)	relative viability (JZL-184 + Lapatinib; first compound 0.4 µM)	relative viability (JZL-184 + Lapatinib; first compound 1.265 µM)	relative viability (JZL-184 + Lapatinib; first compound 4 µM)
NCI-H1651	0.684	0.664	0.855	0.794	1.07	0.99	1.07	1.12	0.993	0.954	1	0.999	0.842	0.533	0.536	0.499	0.833	0.715	0.888	0.798
201T	0.754	0.685	0.744	0.701	1.23	1.19	1.17	1.18	1.14	1.04	1.07	1.07	0.743	0.67	0.727	0.649	1.09	1.06	0.981	1.02
NCI-H3122	1.14	0.902	0.944	0.862	1.03	0.98	0.968	1.01	1.01	0.93	0.982	1.03	0.678	0.602	0.59	0.581	0.959	0.916	1.01	1.08
A549					1.18	1	1.24	1.23					0.643	0.451	0.478	0.498	1.06	0.967	0.955	1.01
NCI-H727	0.665	0.592	0.591	0.582	0.383	0.455	0.543	0.422	0.988	0.689	0.797	0.802	0.505	0.393	0.333	0.473	0.92	0.688	0.862	0.807
NCI-H441	0.604	0.541	0.591	0.601	0.802	0.59	0.796	0.608	0.379	0.373	0.227	0.591	0.631	0.409	0.607	0.423				
HOP-62	0.981	0.805	0.826	0.866	1.13	0.739	1.07	1.1	1.09	0.862	0.809	0.856	0.69	0.822	0.901	0.94	1.19	1	0.665	0.986
LCLC-103H	0.525	0.528	0.428	0.455					0.992	1.08	0.985	1.02	0.574	0.49	0.654	0.615				
ChaGo-K-1	0.637	0.63	0.635	0.555	1.47	0.896	1.29	0.962	1.45	0.984	1.1	1.03	1.03	0.585	1.04	0.741				
